Experiment [1] deals with T1, Carboxy-terminal domain RNA polymerase II polypeptide A small phosphatase 1 (Homo sapiens, UniProt Q9GZU7).
T1 sequence (Q9GZU7 whole entry): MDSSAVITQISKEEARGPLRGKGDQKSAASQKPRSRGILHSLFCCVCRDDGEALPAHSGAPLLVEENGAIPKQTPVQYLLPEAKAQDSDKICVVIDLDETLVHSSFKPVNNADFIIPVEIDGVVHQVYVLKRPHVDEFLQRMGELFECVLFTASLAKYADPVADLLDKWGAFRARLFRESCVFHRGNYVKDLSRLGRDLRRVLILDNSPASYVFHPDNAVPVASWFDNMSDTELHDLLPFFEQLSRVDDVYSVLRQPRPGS
The experiment can be described thus: CTDSP1 inhibitors, concentration-response, biochemical, absorbance readout, ultra-high-throughput screen actives (AID 540297). Type of experiment: functional.

Experiment [2] concerns the target Beta-adrenergic receptor kinase 1 (Homo sapiens, UniProt P25098). Put plainly: blockers of aptamer binding to GRK2 – biochemical, flow cytometry beads, FAM-aptamer, powder set 1, dose response (AID 588720). A general note: Flow cytometry measures light scatter and fluorescence of single cells or particles in a stream.
For experiment [3], the target named is Sphingosine 1-phosphate receptor 1 (Homo sapiens, UniProt P21453). Type of experiment: functional.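 Note: Tango beta-arrestin reporter U2OS cells stimulated with S1P near its EC80; inhibitor potency meaning antagonism of receptor activation by the natural agonist.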
Chain of Sphingosine 1-phosphate receptor 1 (P21453 whole entry): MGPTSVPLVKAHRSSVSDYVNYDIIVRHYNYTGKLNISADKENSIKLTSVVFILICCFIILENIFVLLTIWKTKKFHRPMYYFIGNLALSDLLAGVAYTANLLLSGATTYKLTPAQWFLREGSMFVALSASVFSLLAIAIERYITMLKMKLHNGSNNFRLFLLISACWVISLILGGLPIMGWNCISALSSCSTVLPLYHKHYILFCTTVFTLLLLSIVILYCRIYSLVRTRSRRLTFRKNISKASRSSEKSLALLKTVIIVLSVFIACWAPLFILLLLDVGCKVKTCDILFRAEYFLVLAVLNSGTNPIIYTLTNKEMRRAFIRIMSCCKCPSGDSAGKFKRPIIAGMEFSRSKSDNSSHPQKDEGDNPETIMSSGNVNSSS
Experiment [4] in a line: cAMP pathway inhibition in counterscreen cell line – TR-FRET cAMP detection, counter-screen for MC4R biased antagonist project, dose response (AID 602305).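 Note: U2OS cells stimulated with forskolin near its EC80 as the cAMP inducer; potency is for inhibition of forskolin-stimulated cAMP signaling.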 Type of experiment: functional, cell-based. On the technique in general: A counterscreen serves to expose hits that act by an unwanted route or on another target.
Experiment [5] concerns HEK293. Put plainly: cells. Type of experiment: functional, cell-based. As to conditions: Homo sapiens.
A short description of experiment [6]: Intein inhibitors as potential Tuberculosis drugs, a cytotoxicity screen. [Related pubchem assays (depositor defined):AID2221, AID2223, AID434968, AID435010, AID449749, AID449750, AID489010]. It counts as functional.
In a further experiment the target is T2, Protein RecA (Mycobacterium tuberculosis, UniProt P9WHJ3).
T2 sequence (P9WHJ3 whole entry): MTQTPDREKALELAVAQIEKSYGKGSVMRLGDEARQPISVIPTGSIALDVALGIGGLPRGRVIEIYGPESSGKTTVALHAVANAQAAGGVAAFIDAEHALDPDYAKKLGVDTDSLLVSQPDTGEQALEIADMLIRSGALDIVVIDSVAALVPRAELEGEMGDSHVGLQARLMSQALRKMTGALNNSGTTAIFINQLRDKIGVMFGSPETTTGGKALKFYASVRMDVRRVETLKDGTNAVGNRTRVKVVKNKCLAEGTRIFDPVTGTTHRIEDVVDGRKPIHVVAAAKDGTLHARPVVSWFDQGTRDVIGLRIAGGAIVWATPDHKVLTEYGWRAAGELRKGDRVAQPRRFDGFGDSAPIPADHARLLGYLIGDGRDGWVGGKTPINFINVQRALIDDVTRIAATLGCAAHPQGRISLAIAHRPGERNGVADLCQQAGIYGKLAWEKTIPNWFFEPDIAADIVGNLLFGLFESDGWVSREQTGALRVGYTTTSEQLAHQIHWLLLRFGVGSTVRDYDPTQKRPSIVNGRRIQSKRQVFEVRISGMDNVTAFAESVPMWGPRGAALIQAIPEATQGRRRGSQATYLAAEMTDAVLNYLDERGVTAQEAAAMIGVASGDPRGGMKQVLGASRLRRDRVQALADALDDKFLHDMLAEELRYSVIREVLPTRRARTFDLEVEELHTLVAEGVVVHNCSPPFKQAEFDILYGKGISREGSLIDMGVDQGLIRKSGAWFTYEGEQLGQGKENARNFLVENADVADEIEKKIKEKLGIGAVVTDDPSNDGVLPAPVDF
Put plainly: Fluorescence Cell-Free Homogeneous Dose Retest to Identify Inhibitors of RecA-Intein Splicing Activity. [Related pubchem assays (depositor defined):AID2097, AID2223, AID489010, AID492950]. It counts as functional.

In experiment [7] the test system is BJ. Put plainly: BJ-TERT-LT-ST fibroblast viability loss – cell-based, RAS-independent, luminescence, dose response (AID 1935).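 Note: BJ fibroblasts immortalized with TERT plus LT and ST oncogenes.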 As to conditions: Homo sapiens. Type of experiment: functional.
The subject of experiment [8] is HEK293. Put plainly: cells. Type of experiment: functional, cell-based. The following applies: Homo sapiens. This is another data set of the same source.
Experiment [9] has as its system HEK293. Put plainly: inhibition of NOD1-driven NF-kB reporter – cell-based, luminescence, uHTS, primary screen (AID 1578). It counts as functional. As to conditions: Homo sapiens.
Experiment [10] concerns BJ. The experiment can be described thus: cells. Type of experiment: functional, cell-based. The following applies: Homo sapiens.
Experiment [11] deals with HEK293. The experiment can be described thus: cells. It counts as functional, cell-based. The following applies: Homo sapiens. The source holds these as a separate data set.
Another experiment addresses Melanocortin receptor 4 (Homo sapiens, UniProt P32245). The experiment can be described thus: inhibitors of MC4R cAMP signaling – cell-based, TR-FRET, biased antagonists, dose response (AID 602298).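 Note: antagonist potency against agonist-stimulated cAMP production.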 It counts as functional. On the technique in general: In TR-FRET formats the signal depends on donor and acceptor labels being close together.
For experiment [12], the system named is HEK293. Put plainly: NOD2 signaling inhibitors in MDP-stimulated cells, cell-based, uHTS, luminescence (AID 2001). Type of experiment: functional. As to conditions: Homo sapiens.
For experiment [13], the system named is BJ. The experiment can be described thus: BJ-TERT fibroblast viability loss – cell-based, RAS-independent, luminescence, dose response (AID 1933). Type of experiment: functional. The following applies: Homo sapiens.
The nature of experiment [14]: DRD fibroblast viability loss – cell-based, non-viral oncogenic, luminescence, dose response (AID 1934). As to conditions: Homo sapiens. Type of experiment: functional.
Experiment [15] deals with Sphingosine 1-phosphate receptor 4 (Homo sapiens, UniProt O95977). Put plainly: Fluorescence dose response cell-based high throughput screening assay for antagonists of the Sphingosine 1-Phosphate Receptor 4 (S1P4). [Related pubchem assays: 1524 (Confirmation in triplicates.), 1510 (Primary screen.)]. Type of experiment: functional.
Chain of Sphingosine 1-phosphate receptor 4 (O95977 whole entry): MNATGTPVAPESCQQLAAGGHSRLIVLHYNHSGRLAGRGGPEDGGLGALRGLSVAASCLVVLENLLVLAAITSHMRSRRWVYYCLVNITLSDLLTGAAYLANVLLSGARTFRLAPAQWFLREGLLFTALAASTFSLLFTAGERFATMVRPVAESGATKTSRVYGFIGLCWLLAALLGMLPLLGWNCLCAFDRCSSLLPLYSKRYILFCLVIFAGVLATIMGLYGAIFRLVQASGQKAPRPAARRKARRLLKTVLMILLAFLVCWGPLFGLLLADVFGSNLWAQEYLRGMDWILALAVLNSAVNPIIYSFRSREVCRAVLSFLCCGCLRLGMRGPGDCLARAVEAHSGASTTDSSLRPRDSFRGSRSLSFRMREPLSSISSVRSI
In experiment [16] the target is T3, Replicative DNA helicase DnaB (Mycobacterium tuberculosis, UniProt P9WMR3).
T3 sequence (P9WMR3 whole entry): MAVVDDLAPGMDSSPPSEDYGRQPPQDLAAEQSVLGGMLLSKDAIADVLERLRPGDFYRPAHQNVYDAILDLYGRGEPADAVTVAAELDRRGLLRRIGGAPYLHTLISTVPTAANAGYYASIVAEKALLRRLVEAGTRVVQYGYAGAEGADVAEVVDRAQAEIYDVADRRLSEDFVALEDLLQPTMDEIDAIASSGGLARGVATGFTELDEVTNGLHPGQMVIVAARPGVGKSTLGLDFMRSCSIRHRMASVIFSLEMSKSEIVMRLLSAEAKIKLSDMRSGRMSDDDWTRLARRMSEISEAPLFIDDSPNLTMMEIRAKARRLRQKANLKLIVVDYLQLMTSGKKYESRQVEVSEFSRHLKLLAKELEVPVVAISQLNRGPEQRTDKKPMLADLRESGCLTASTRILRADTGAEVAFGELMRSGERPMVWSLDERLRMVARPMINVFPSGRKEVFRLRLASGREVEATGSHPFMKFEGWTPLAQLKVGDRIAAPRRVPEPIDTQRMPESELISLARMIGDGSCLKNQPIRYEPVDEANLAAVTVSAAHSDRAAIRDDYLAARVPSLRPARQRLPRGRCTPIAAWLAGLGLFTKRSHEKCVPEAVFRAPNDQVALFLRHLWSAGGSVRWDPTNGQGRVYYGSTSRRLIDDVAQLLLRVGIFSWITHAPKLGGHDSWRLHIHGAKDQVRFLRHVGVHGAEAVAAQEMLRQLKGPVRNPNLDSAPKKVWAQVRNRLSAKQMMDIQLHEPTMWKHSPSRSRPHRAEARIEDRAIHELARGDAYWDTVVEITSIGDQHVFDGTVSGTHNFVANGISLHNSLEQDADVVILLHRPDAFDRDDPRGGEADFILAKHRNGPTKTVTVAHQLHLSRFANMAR
Put plainly: DnaB intein splicing inhibitors, dose response, biochemical, cell-free fluorescence (AID 449749). Type of experiment: functional.

In experiment [17] the target is Nucleotide-binding oligomerization domain-containing protein 2 (Homo sapiens, UniProt Q9HC29). Put plainly: inhibition of NOD2-driven NF-kB reporter – cell-based, luminescence, uHTS, HEK293 (AID 1566). It counts as functional.
Chain of Nucleotide-binding oligomerization domain-containing protein 2 (Q9HC29 whole entry, the tested form may be a part): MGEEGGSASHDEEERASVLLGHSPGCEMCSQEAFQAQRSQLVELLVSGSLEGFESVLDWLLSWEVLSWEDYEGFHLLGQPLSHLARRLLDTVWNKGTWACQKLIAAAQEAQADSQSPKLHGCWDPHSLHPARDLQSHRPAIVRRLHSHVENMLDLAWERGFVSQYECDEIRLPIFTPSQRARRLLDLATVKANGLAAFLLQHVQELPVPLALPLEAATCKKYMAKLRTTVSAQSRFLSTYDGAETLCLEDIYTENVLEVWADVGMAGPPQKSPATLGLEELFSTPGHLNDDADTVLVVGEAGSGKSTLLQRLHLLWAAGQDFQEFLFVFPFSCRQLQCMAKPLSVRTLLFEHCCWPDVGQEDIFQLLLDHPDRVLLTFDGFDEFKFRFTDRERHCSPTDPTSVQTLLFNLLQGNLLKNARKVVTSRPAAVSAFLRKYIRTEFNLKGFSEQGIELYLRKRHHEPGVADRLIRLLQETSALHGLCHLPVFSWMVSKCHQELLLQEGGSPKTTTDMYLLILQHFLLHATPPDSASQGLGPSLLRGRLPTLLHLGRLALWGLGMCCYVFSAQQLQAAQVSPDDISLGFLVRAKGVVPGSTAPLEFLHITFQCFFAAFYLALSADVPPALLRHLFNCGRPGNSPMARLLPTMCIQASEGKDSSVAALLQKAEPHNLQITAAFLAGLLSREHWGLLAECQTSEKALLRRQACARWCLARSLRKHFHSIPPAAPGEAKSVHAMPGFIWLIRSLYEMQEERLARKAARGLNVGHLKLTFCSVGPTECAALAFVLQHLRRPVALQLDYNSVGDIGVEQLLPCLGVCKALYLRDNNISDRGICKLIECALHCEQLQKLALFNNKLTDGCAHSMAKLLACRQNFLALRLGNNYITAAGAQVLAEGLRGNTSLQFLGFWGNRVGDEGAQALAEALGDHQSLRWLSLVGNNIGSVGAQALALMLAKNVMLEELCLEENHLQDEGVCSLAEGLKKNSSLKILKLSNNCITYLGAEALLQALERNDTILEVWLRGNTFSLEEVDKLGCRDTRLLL
Experiment [18] in a line: Luminescence Cell-Based Dose Response HTS to Identify Activators of Luciferase Translation or Activity in H4 […] Cells. [Related pubchem assays: 1829 (Project Summary), 1814 (Primary HTS)]. Type of experiment: functional.
A short description of experiment [19]: Luminescence Cell-Based Dose Confirmation HTS to Identify Activators of 5'UTR Stem-Loop Driven Alpha-Synuclein mRNA Translation in H4 Neuroglioblastoma Cells. [Related pubchem assays: 1829 (Project Summary), 1814 (Primary HTS)]. Type of experiment: functional.
Another experiment deals with H4. The experiment can be described thus: Luminescence Cell-Based Dose Response HTS to Identify Activators of 5'UTR Stem-Loop Driven Prion Protein mRNA Translation in H4 Neuroglioblastoma Cells. [Related pubchem assays: 1829 (Project Summary), 1814 (Primary HTS)]. It counts as functional. The following applies: Homo sapiens.
For experiment [20], the target named is Nuclear receptor subfamily 0 group B member 1 (Homo sapiens, UniProt P51843). The experiment can be described thus: Luminescence-based cell-based high throughput dose response assay for inhibitors of the orphan nuclear receptor subfamily 0, group B, member 1 (DAX1; NR0B1). [Related pubchem assays (depositor defined):AID504766, AID504790]. It counts as functional.
Chain of Nuclear receptor subfamily 0 group B member 1 (P51843 whole entry): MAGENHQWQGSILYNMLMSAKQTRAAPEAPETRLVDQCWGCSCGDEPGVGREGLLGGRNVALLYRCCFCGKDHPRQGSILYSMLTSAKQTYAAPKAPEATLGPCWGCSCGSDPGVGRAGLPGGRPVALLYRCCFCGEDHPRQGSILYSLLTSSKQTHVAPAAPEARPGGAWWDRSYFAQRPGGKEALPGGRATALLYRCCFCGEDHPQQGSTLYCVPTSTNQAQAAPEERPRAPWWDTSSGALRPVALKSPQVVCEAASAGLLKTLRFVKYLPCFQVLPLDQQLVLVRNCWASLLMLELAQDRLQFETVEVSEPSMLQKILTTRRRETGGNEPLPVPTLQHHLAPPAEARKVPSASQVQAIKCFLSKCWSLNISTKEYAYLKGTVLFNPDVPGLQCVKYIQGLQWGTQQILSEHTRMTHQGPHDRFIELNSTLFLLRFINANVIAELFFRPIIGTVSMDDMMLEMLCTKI

For experiment [21], the system named is HEK293. Put plainly: cells. Type of experiment: functional, cell-based. As to conditions: Homo sapiens. This is another data set of the same source.

Activity calls are given as the source filed them.

The IC50 is the concentration at which inhibition is half-maximal. The EC50 is the concentration that produces a half-maximal response. As usually defined, the CC50 is the concentration giving 50% cytotoxicity. Broadly, the AC50 is the concentration giving half of the maximal activity seen.
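Throughout, for CC50: cells exposed to compound for 72 hours before luminescence readout.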

Chain of Melanocortin receptor 4 (P32245 whole entry): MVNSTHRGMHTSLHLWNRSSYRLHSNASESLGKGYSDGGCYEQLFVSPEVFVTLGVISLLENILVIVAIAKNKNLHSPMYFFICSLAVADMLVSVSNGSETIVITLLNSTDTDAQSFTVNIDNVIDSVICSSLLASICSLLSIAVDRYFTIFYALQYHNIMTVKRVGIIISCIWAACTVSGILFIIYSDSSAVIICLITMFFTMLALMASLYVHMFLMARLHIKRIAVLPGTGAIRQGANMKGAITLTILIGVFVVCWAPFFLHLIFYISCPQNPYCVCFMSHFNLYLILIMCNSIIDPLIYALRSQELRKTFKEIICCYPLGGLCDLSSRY
Chain of Beta-adrenergic receptor kinase 1 (P25098 whole entry): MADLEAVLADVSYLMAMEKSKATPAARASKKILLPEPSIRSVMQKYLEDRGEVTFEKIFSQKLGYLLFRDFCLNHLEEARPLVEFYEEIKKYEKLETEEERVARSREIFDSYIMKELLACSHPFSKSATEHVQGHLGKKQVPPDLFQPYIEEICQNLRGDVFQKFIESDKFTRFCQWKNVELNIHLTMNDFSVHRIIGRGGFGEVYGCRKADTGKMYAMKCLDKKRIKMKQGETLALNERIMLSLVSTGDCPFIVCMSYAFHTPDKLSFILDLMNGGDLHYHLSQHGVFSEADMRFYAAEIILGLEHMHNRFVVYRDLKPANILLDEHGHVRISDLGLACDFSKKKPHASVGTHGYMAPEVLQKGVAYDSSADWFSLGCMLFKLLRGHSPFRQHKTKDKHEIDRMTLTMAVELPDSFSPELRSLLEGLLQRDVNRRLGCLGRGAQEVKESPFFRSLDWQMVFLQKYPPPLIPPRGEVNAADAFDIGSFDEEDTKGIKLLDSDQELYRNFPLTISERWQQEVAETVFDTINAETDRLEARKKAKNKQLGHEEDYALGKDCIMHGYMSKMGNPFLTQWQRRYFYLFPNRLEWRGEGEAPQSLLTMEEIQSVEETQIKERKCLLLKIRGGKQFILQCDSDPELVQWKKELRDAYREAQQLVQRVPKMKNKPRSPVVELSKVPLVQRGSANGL

In the case of `C#CCSc1nc2sc3c(c2c(=O)n1C)CCC3`, the IC50 in experiment [1] is 6.45 µM (active). For the same molecule, the EC50 in experiment [2] is 2.72 µM (active).

Regarding `CC(=O)n1cc(N(C(=O)CCl)c2ccc(C)cc2)c2ccccc21`, the IC50 in experiment [3] was 14.5 µM (not active); in [4], > 64.6 µM (inactive); in the experiment with HEK293 [5], 3.22 µM (active); in the experiment on HEK293 [8] it was > 20 µM (inactive); in the experiment on HEK293 [11], 11.5 µM (active); on Melanocortin receptor 4, > 64.6 µM (inactive). Besides, the IC50 in the experiment with HEK293 [12] was 5.38 µM (active); in [15], 1.3 µM (active). The CC50 in experiment [6] is 0.83 µM (active). The EC50 on Protein RecA is 0.248 µM (active); in the experiment on BJ [7], 5.27 µM (inconclusive); in the experiment with HEK293 [9] it was 16.2 µM (active); with BJ [10], 2.65 µM (inconclusive); in the experiment with BJ [13] it was 0.812 µM (inconclusive); in [14] it was 1.2 µM (active). In experiment [17], the EC50 was > 20 µM (inactive). Moreover, the half-maximal activity concentration (AC50) in experiment [16] was 2.53 µM (active).

Consider `COC(=O)c1cc2c(s1)-c1ccc(OC)cc1CC2`, for which the EC50 in experiment [18] was 18.7 µM (active); in experiment [19] it was 9.47 µM (active); in the experiment with H4, 46.2 µM (active). Further, the IC50 in experiment [20] is > 67.5 µM (inactive); in the experiment with HEK293 [21], > 22.5 µM (inactive).

The values above are taken from ChEMBL document CHEMBL1201862, “PubChem BioAssay data set” (2004).
